Measurements taken from patent publication US8575156B2, “Cyclic inhibitors of 11β-hydroxysteroid dehydrogenase 1” (Vitae Pharmaceuticals, Inc., priority 2007, dated 2013).

Biological target: 11β-HSD1 (Homo sapiens, UniProt P28845)
Assay: biochemical
Settings: for IC50: IC50 Range, Biological Test Example 1, microsomes from CHO cells overexpressing human 11β-HSD1; for inhibition at 0.1 µM: read-out: Average % inhibition at 100 nM, Biological Test Example 1, 100 nM

11β-HSD1, sequence (P28845 whole entry): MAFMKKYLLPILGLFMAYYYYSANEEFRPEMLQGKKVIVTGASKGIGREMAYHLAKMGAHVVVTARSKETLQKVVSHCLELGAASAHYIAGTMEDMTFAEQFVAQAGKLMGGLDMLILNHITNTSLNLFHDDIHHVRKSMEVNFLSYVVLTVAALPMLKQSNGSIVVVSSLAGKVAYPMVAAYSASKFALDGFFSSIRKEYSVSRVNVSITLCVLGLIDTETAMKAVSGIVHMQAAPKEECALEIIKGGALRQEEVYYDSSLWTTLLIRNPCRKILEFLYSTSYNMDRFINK

Row | IC50 | inhibition at 0.1 µM | inhibition at 0.1111 µM (read-out: Average % inhibition at 111.1 nM, Biological Test Example 1, 111.1 nM) | SMILES
1 | < 100 nM | 94.7% |  | C[C@@H](c1ccc(F)cc1)N1CC[C@](CC(C)(C)O)(c2ccc(F)cc2)OC1=O [EXAMPLE 407, (S)-6-(4-fluorophenyl)-3-((S)-1-(4-fluorophenyl)ethyl)-6-(2-hydroxy-2-methylpropyl)-1,3-oxazinan-2-one]
2 | < 100 nM | 90.2% |  | CC(O)C[C@]1(c2ccc(F)cc2)CCN([C@@H](C)c2ccc(F)cc2)C(=O)O1 (stereo partly drawn) [EXAMPLE 408, (6S)-6-(4-fluorophenyl)-3-((S)-1-(4-fluorophenyl)ethyl)-6-(2-hydroxypropyl)-1,3-oxazinan-2-one]
3 | < 100 nM | 91.6% |  | C[C@@H](c1ccc(F)cc1)N1CC[C@](CCCNS(C)(=O)=O)(c2ccc(F)cc2)OC1=O [EXAMPLE 409, N-(3-((R)-6-(4-fluorophenyl)-3-((S)-1-(4-fluorophenyl)ethyl)-2-oxo-1,3-oxazinan-6-yl)propyl)methanesulfonamide]
4 | < 100 nM | 52% |  | C[C@@H](c1ccc(F)cc1)N1CC[C@](CCC(C)(C)O)(c2ccc(F)cc2)OC1=O [EXAMPLE 410, (R)-6-(4-fluorophenyl)-3-((S)-1-(4-fluorophenyl)ethyl)-6-(3-hydroxy-3-methylbutyl)-1,3-oxazinan-2-one]
5 | < 100 nM | 94.7% |  | C[C@@H](c1ccc(F)cc1)N1CC[C@](CCO)(c2ccccc2)OC1=O [EXAMPLE 412, (S)-3-((S)-1-(4-fluorophenyl)ethyl)-6-(2-hydroxyethyl)-6-phenyl-1,3-oxazinan-2-one]
6 | < 100 nM | 95.3% |  | C[C@@H](c1ccc(F)cc1)N1CC[C@](CC(C)(C)O)(c2ccccc2)OC1=O [EXAMPLE 413, (S)-3-((S)-1-(4-fluorophenyl)ethyl)-6-(2-hydroxy-2-methylpropyl)-6-phenyl-1,3-oxazinan-2-one]
7 | < 100 nM | 94.4% |  | C[C@@H](c1ccc(F)cc1)N1CC[C@](CCCO)(c2ccccc2)OC1=O [EXAMPLE 414, (R)-3-((S)-1-(4-fluorophenyl)ethyl)-6-(3-hydroxypropyl)-6-phenyl-1,3-oxazinan-2-one]
8 | < 100 nM | 87.6% |  | C[C@@H](c1ccc(F)cc1)N1CC[C@](CCC(N)=O)(c2ccccc2)OC1=O [EXAMPLE 415, 3-((R)-3-((S)-1-(4-fluorophenyl)ethyl)-2-oxo-6-phenyl-1,3-oxazinan-6-yl)propanamide]
9 | < 100 nM | 55.1% |  | C[C@@H](c1ccc(F)cc1)N1CC[C@](CCC(C)(C)O)(c2ccccc2)OC1=O [EXAMPLE 416, (R)-3-((S)-1-(4-fluorophenyl)ethyl)-6-(3-hydroxy-3-methylbutyl)-6-phenyl-1,3-oxazinan-2-one]
10 | < 100 nM | 97.1% |  | Cc1ccc([C@H](C)N2CC[C@](CC(C)(C)O)(c3ccc(F)cc3)OC2=O)cc1 [EXAMPLE 417, (S)-6-(4-fluorophenyl)-6-(2-hydroxy-2-methylpropyl)-3-((S)-1-p-tolylethyl)-1,3-oxazinan-2-one]
11 | < 100 nM | 99.2% |  | Cc1ccc([C@H](C)N2CC[C@](CCCO)(c3ccc(F)cc3)OC2=O)cc1 [EXAMPLE 418, (R)-6-(4-fluorophenyl)-6-(3-hydroxypropyl)-3-((S)-1-p-tolylethyl)-1,3-oxazinan-2-one]
12 | < 100 nM | 97.3% |  | Cc1ccc([C@H](C)N2CC[C@](CCCNS(C)(=O)=O)(c3ccc(F)cc3)OC2=O)cc1 [EXAMPLE 420, N-(3-((R)-6-(4-fluorophenyl)-2-oxo-3-((S)-1-p-tolylethyl)-1,3-oxazinan-6-yl)propyl)methanesulfonamide]
13 | < 100 nM | 96.1% |  | Cc1ccc([C@H](C)N2CC[C@](CCO)(c3ccc(F)cc3)OC2=O)cc1 [EXAMPLE 421, (S)-6-(4-fluorophenyl)-6-(2-hydroxyethyl)-3-((S)-1-p-tolylethyl)-1,3-oxazinan-2-one]
14 | < 100 nM | 100% |  | Cc1ccc([C@H](C)N2CC[C@](CC(C)(C)O)(c3ccccc3)OC2=O)cc1 [EXAMPLE 422, (S)-6-(2-hydroxy-2-methylpropyl)-6-phenyl-3-((S)-1-p-tolylethyl)-1,3-oxazinan-2-one]
15 | < 100 nM | 97.6% |  | Cc1ccc([C@H](C)N2CC[C@](CCCO)(c3ccccc3)OC2=O)cc1 [EXAMPLE 423, (R)-6-(3-hydroxypropyl)-6-phenyl-3-((S)-1-p-tolylethyl)-1,3-oxazinan-2-one]
16 | < 100 nM | 97% |  | Cc1ccc([C@H](C)N2CC[C@](CCC(N)=O)(c3ccccc3)OC2=O)cc1 [EXAMPLE 424, 3-((R)-2-oxo-6-phenyl-3-((S)-1-p-tolylethyl)-1,3-oxazinan-6-yl)propanamide]

Row | IC50 | inhibition at 0.1 µM | inhibition at 0.1111 µM (read-out: Average % inhibition at 111.1 nM, Biological Test Example 1, 111.1 nM) | SMILES
17 | < 100 nM | 96.2% |  | COc1ccc([C@H](C)N2CC[C@](CC(C)(C)O)(c3ccc(F)cc3)OC2=O)cc1 [EXAMPLE 425, (S)-6-(4-fluorophenyl)-6-(2-hydroxy-2-methylpropyl)-3-((S)-1-(4-methoxyphenyl)ethyl)-1,3-oxazinan-2-one]
18 | < 100 nM | 82.5% |  | COc1ccc([C@H](C)N2CC[C@](CCC(C)(C)O)(c3ccc(F)cc3)OC2=O)cc1 [EXAMPLE 426, (R)-6-(4-fluorophenyl)-6-(3-hydroxy-3-methylbutyl)-3-((S)-1-(4-methoxyphenyl)ethyl)-1,3-oxazinan-2-one]
19 | < 100 nM | 97.8% |  | COc1ccc([C@H](C)N2CC[C@](CC(C)(C)O)(c3ccccc3)OC2=O)cc1 [EXAMPLE 427, (S)-6-(2-hydroxy-2-methylpropyl)-3-((S)-1-(4-methoxyphenyl)ethyl)-6-phenyl-1,3-oxazinan-2-one]
20 | < 100 nM | 82% |  | COc1ccc([C@H](C)N2CC[C@](CCC(C)(C)O)(c3ccccc3)OC2=O)cc1 [EXAMPLE 428, (R)-6-(3-hydroxy-3-methylbutyl)-3-((S)-1-(4-methoxyphenyl)ethyl)-6-phenyl-1,3-oxazinan-2-one]
21 |  |  | 99.4% | Cc1cc(-c2ccc([C@H](C)N3CC[C@](CC(C)(C)O)(c4ccc(F)cc4)OC3=O)cc2)ccn1 [EXAMPLE 449, (S)-6-(4-fluorophenyl)-6-(2-hydroxy-2-methylpropyl)-3-((S)-1-(4-(2-methylpyridin-4-yl)phenyl)ethyl)-1,3-oxazinan-2-one]
22 | < 100 nM | 72.3% |  | C[C@@H](c1ccc(-c2ccc(F)cc2)cc1)N1CC[C@](CCN2CCC2)(c2ccc(F)cc2)OC1=O [EXAMPLE 462, (R)-6-(2-(azetidin-1-yl)ethyl)-3-((S)-1-(4′-fluorobiphenyl-4-yl)ethyl)-6-(4-fluorophenyl)-1,3-oxazinan-2-one]
23 | < 100 nM | 81.3% |  | C[C@@H](c1ccc(-c2ccc(F)cc2)cc1)N1CC[C@](CCNCCF)(c2ccc(F)cc2)OC1=O [EXAMPLE 463, (R)-3-((S)-1-(4′-fluorobiphenyl-4-yl)ethyl)-6-(2-(2-fluoroethylamino)ethyl)-6-(4-fluorophenyl)-1,3-oxazinan-2-one]
24 | < 100 nM | 80.2% |  | C[C@@H](c1ccc(-c2ccc(F)cc2)cc1)N1CC[C@](CCN2CCCC2)(c2ccc(F)cc2)OC1=O [EXAMPLE 464, (R)-3-((S)-1-(4′-fluorobiphenyl-4-yl)ethyl)-6-(4-fluorophenyl)-6-(2-(pyrrolidin-1-yl)ethyl)-1,3-oxazinan-2-one]
25 | < 100 nM | 65% |  | C[C@@H](c1ccc(-c2ccc(F)cc2)cc1)N1CC[C@](CCN2CC[C@H](F)C2)(c2ccc(F)cc2)OC1=O [EXAMPLE 465, (R)-3-((S)-1-(4′-fluorobiphenyl-4-yl)ethyl)-6-(4-fluorophenyl)-6-(2-((S)-3-fluoropyrrolidin-1-yl)ethyl)-1,3-oxazinan-2-one]
26 | < 100 nM | 55.3% |  | C[C@@H](c1ccc(-c2ccc(F)cc2)cc1)N1CC[C@](CCN2CC[C@@H](F)C2)(c2ccc(F)cc2)OC1=O [EXAMPLE 466, (R)-3-((S)-1-(4′-fluorobiphenyl-4-yl)ethyl)-6-(4-fluorophenyl)-6-(2-((R)-3-fluoropyrrolidin-1-yl)ethyl)-1,3-oxazinan-2-one]
27 | < 100 nM | 81.2% |  | C[C@@H](c1ccc(-c2ccc(F)cc2)cc1)N1CC[C@](CCN2CCNC(=O)C2)(c2ccc(F)cc2)OC1=O [EXAMPLE 467, (R)-3-((S)-1-(4′-fluorobiphenyl-4-yl)ethyl)-6-(4-fluorophenyl)-6-(2-(3-oxopiperazin-1-yl)ethyl)-1,3-oxazinan-2-one]
28 | < 100 nM | 98.3% |  | C[C@@H](c1ccc(-c2ccccc2)cc1)N1CC[C@](CCO)(c2ccccc2)OC1=O [EXAMPLE 489, (S)-3-((S)-1-(biphenyl-4-yl)ethyl)-6-(2-hydroxyethyl)-6-phenyl-1,3-oxazinan-2-one]
29 | < 100 nM | 94.8% |  | C[C@@H](c1ccc(-c2ccccc2)cc1)N1CC[C@](CCCO)(c2ccccc2)OC1=O [EXAMPLE 490, (R)-3-((S)-1-(biphenyl-4-yl)ethyl)-6-(3-hydroxypropyl)-6-phenyl-1,3-oxazinan-2-one]
30 | < 100 nM | 99.3% |  | C[C@@H](c1ccc(-c2ccc(F)cc2)cc1)N1CC[C@](CCN2CCOCC2)(c2ccccc2)OC1=O [EXAMPLE 491, (R)-3-((S)-1-(4′-fluorobiphenyl-4-yl)ethyl)-6-(2-morpholinoethyl)-6-phenyl-1,3-oxazinan-2-one]
31 | < 100 nM | 87.7% |  | C[C@@H](c1ccc(-c2ccc(F)cc2F)cc1)N1CC[C@](CCCOP(=O)(O)O)(c2ccccc2)OC1=O [EXAMPLE 492, 3-((R)-3-((S)-1-(2′,4′-difluorobiphenyl-4-yl)ethyl)-2-oxo-6-phenyl-1,3-oxazinan-6-yl)propyl dihydrogen phosphate]
32 | < 100 nM | 89.1% |  | C[C@@H](c1ccc(-c2cccc(CN)c2)cc1)N1CC[C@](CCCO)(c2ccccc2)OC1=O [EXAMPLE 493, (R)-3-((S)-1-(3′-(aminomethyl)biphenyl-4-yl)ethyl)-6-(3-hydroxypropyl)-6-phenyl-1,3-oxazinan-2-one]
